According to patent US20250313563A1, “GLYCOGEN SYNTHASE KINASE 3 INHIBITORS AND USES THEREOF” (The Broad Institute, Inc., priority 2022, published 2025):
Read-outs that look alike come from different tables or passages of the source.

Tests used:
GSK3α [1] = target: GSK3α (Homo sapiens (Human), UniProt P49840); assay: AT8 (pS202/pThr205) tau phosphorylation FRET assay, GSK3α-transfected cells; format: cell-based; conditions: GSK3α and GSK3β transfected cells
Description: 293T cells stably expressing human 2N4R Tau were transfected with appropriate cDNA plasmids. 24 hours following transfection cells were treated with compound in a 10-point dose-response (from 1000× stocks of compound) and lysates harvested 2 hours later with cell extraction buffer (Life Technologies Cat #BN0001) or RIPA Buffer with Halt protease/phosphatase inhibitors added.
For AT8 assay: FRET antibodies (Custom designed Cisbio assay kit; S202/T205 Tb and total Tau D2 FRET antibodies) were added to lysate in a 384 well assay plate at 1:4 ratio (antibody/lysate). After antibody addition, the plate was left at room temperature for 60 minutes incubation time. Plate was read with appropriate wavelength settings using an Envision plate reader (ex320 and em620 and em665).

NanoLuc-GSK3α = NanoLuc-GSK3α (Homo sapiens (Human), UniProt P49840); assay: NanoBRET residence time, GSK3α; format: cell-based; conditions: inhibitor at 10× IC50, BRET every 5 min for 3 hours
[2] = Drug exposure in blood and brain, free drug concentration in the brain; format: in vivo, Sprague Dawley rats; conditions: P10 rats
Description: Sprague Dawley rats were bred in-house and litters were injected with compound, I.P. at post-natal day 10. Rats were then euthanized at indicated times following drug administration. For tissue collection, animals were euthanized via decapitation, brains were quickly removed, and bisected sagitally. The right cortex, was isolated, placed into 2 mL microtubes along with a single 5 mm stainless steel bead and the left cortex were placed into 2 mL Lysing Matrix A tubes (MP Biomedicals, Santa Ana, CA), Both tubes were immediately snap frozen in liquid nitrogen.
Aqueous buffered homogenate was created from cortical tissue via bead beater, at a consistent homogenization factor, which was normalized by tissue weight. Total drug in brain was determined by measuring total exposure in brain in ng/ml (cortical tissue) via LC-MS/MS. This was then corrected to free concentration via an experimentally derived fu,br using rapid equilibrium dialysis with brain homogenate.
To determine drug exposure, blood and cortical tissue were analyzed at each time point following dosing.

GSK3α [3] = target: GSK3α (Rattus norvegicus (Rat), UniProt P18265); assay: In vivo target engagement assay (chemoproteomics, kinobeads), GSK3α; conditions: P10 rat cortex
Description: Chemoproteomics competition was used to evaluate inhibitor selectivity and target engagement in vivo. Frozen cortexes were prepared for homogenization with 1.2 mL of Lysis Buffer (50 mM Tris-HCl, 0.8% NP-40 ((octylphenoxy poly(ethyleneoxy) ethanol)), 5% glycerol, 150 mM NaCl, 1.5 mM MgCl2, 25 mM NaF, 1 mM sodium vanadate, 1 mM DTT, pH 7.5 and supplemented with protease inhibitors). Tissues were homogenized in FastPrep-24 5G instrument at maximum oscillations for 20 seconds. The resulting brain homogenate was clarified by centrifugation for 1 h at 145 000 g, 4° C. The protein concentration of the supernatant was determined by BCA assay and each sample was diluted to final concentration of 5 mg/mL with lysis buffer. […] The dry peptide mixture was reconstituted in 15 μL of 0.1% trifluoro acetic acid and analyzed on ID nanoLC-MS/MS platform using a standardized 140 min method. Peptides were separated on an Easy-Spray column (75 μm×50 cm, PepMAP C18, 1.9 μm) at 250 nL/min, analyzed on a QExactive HF mass spectrometer at data dependent acquisition (DDA) mode with MS1 at 60,000 and MS2 at 15,000 resolution, respectively. […]
To measure direct target engagement of the compound for both GSK3α and GSK3β competitive chemoproteomics methodology was used. […] Enriched proteins were analyzed by liquid chromatography coupled with tandem mass spectrometry. […]

[4] = target: GSK3α (GST-full length GSK3α) (Homo sapiens (Human), UniProt P49840); assay: GSK3α TR-FRET kinase assay; format: biochemical; conditions: geometric mean, GMean
Method in brief: (§1)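 1 nM GST-GSK3α/β + cpd, 30 min preinc; add 200 nM biotin-pS645 GS(631-650) peptide + ATP (α 4 μM / β 2 μM, or 1 mM); 100 min RT, 50 mM Tris pH 7.5, 20 mM MgCl2, 1% DMSO; EDTA stop; SA-d2/Tb-pSer641 Ab 60 min; 665/615 ratio → IC50.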

[5] = target: GSK3b (GST-full length GSK3b) (Homo sapiens (Human), UniProt P49841); assay: GSK3b TR-FRET kinase assay; format: biochemical; conditions: geometric mean, GMean
Method in brief: as §1

GSK3α (GST-full length GSK3α), sequence (P49840 whole entry): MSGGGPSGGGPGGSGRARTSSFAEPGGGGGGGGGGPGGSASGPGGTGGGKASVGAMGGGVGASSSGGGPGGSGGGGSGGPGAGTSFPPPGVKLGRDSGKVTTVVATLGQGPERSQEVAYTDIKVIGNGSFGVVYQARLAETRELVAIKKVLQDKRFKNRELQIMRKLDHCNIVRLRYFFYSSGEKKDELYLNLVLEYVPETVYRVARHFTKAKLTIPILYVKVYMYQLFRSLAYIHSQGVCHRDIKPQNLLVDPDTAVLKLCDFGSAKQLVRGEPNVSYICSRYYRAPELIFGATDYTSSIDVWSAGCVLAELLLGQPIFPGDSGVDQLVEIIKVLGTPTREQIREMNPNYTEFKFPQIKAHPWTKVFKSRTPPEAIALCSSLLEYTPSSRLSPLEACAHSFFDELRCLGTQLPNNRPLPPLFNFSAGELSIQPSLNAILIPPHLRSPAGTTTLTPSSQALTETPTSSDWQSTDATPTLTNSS
GSK3b (GST-full length GSK3b), sequence (P49841 whole entry): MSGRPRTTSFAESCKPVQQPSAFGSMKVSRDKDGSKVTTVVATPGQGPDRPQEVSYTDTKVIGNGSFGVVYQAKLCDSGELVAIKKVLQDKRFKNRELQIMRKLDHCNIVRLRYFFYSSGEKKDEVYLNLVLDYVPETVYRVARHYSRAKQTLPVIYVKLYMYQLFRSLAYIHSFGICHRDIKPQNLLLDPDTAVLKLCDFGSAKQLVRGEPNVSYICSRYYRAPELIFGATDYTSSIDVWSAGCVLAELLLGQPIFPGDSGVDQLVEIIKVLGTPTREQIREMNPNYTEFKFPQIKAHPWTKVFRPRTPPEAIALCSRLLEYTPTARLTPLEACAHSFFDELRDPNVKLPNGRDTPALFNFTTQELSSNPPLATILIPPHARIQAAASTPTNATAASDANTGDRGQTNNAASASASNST
GSK3α (Rattus norvegicus (Rat), UniProt P18265), sequence (P18265 whole entry): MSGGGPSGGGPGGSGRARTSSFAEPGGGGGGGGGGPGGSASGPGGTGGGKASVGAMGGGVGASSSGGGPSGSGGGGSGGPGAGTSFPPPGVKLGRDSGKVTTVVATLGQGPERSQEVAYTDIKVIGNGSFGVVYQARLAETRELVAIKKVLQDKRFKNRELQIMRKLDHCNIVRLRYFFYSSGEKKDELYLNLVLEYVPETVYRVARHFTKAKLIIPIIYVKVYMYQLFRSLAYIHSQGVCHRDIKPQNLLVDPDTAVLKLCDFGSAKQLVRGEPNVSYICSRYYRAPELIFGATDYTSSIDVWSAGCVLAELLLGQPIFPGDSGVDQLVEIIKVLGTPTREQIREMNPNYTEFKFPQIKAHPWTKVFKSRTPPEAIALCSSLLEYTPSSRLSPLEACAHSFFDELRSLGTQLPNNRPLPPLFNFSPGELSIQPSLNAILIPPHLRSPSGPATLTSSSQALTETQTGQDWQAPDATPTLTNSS
NanoLuc-GSK3α, sequence (P49840 whole entry): as the sequence (P49840 whole entry) above
GSK3α (Homo sapiens (Human), UniProt P49840), sequence (P49840 whole entry): as above

SMILES: CCC1(c2cccc(C(F)(F)F)c2)C2=C(Nc3n[nH]cc31)C(F)C(C)(C)CC2=O (single isomer, unassigned) [Compound 837646, 4-ethyl-8-fluoro-7,7-dimethyl-4-(3-(trifluoromethyl)phenyl)-2,4,6,7,8,9-hexahydro-5H-pyrazolo[3,4-b]quinolin-5-one]
- relative cellular potency and paralog selectivity at pS202/pThr205 (AT8) compared with pThr231 assay (GSK3α [1]): similar
- residence time at GSK3α (NanoLuc-GSK3α): no difference in the residence time
- steady Cmax extending post injection [2]: 6 h
- target engagement at GSK3α, 24 hr (GSK3α [3]; 24 hr, both 60 mg/kg and 20 mg/kg): ~50%
- target engagement for GSK3α, 3 hours (GSK3α [3]; three hours after dosing (Cmax, 60 mg/kg)): over 90%
- IC50 ([4]; 1 nM GSK3α, 4 μM ATP, 30 minute preincubation, read-out: GSK3-A TR-FRET BIOCHEMICAL (TR-FRET), IC50): ≤ 100 nM
- IC50 ([4]; GSK3-A (TR-FRET 1 mM ATP), IC50, 1 mM ATP): ≤ 100 nM
- IC50 ([5]; 1 nM GSK3b, 2 μM ATP, 30 minute preincubation, read-out: GSK3-B TR-FRET BIOCHEMICAL (TR-FRET), IC50): ≤ 100 nM
- IC50 ([5]; GSK3-B (TR-FRET 1 mM ATP), IC50, 1 mM ATP): 1000 to 5000 nM
